Data: ChEMBL document CHEMBL4052785, “Discovery of (R)-5-(benzo[d][1,3]dioxol-5-yl)-7-((1-(vinylsulfonyl)pyrrolidin-2-yl)methyl)-7H-pyrrolo[2,3-d]pyrimidin-4-amine (B6) as a potent Bmx inhibitor for the treatment of NSCLC” (Bioorg Med Chem Lett, 2017)

What was measured:
[1] = target: Serine/threonine-protein kinase PLK1 (Homo sapiens, UniProt P53350); assay: Inhibition of recombinant human N-terminal His6-tagged PLK1 expressed in baculovirus Sf21 insect cells preincubated for 5 mins followed by substrate addition after 30 to 60 mins in presence of ATP by fluorescence assay
Mus musculus = assay: Toxicity in nude mouse xenografted with human NCI-H1975 cells assessed as body weight loss at 25 mg/kg administered qd via oral gavage measured every 2 days up to 18 days; assay type: organism-based; settings: in vivo
[2] = target: Cytoplasmic tyrosine-protein kinase BMX (Homo sapiens, UniProt P51813); assay: Inhibition of recombinant human full length N-terminal His6-tagged BMX expressed in Sf21 cells preincubated for 5 mins followed by biotinyl-beta Abeta Abeta AEEEPQYEEIPIYLELLP substrate addition after 30 to 60 mins in presence of ATP by fluorescence assay
[3] = target: Tyrosine-protein kinase BTK (Homo sapiens, UniProt Q06187); assay: Inhibition of recombinant human full length N-terminal His6-tagged BTK expressed in baculovirus Sf21 insect cells preincubated for 5 mins followed by LSNLYHQGKFLQT substrate addition after 30 to 60 mins in presence of ATP by fluorescence assay
[4] = target: Tyrosine-protein kinase Tec (Homo sapiens, UniProt P42680); assay: Inhibition of recombinant human N-terminal His6-tagged TEC (174 to end residues) expressed in baculovirus Sf21 insect cells preincubated for 5 mins followed by Ulight-TK peptide substrate addition after 30 to 60 mins in presence of ATP by fluorescence assay
[5] = target: Epidermal growth factor receptor (Homo sapiens, UniProt P00533); assay: Inhibition of recombinant human N-terminal GST-tagged EGFR (696 to end residues) expressed in baculovirus Sf21 insect cells preincubated for 5 mins followed by substrate addition after 30 to 60 mins in presence of ATP by fluorescence assay
[6] = target: Receptor tyrosine-protein kinase erbB-4 (Homo sapiens, UniProt Q15303); assay: Inhibition of human N-terminal 6His-tagged HER4 (706 to 991 residues) preincubated for 5 mins followed by substrate addition after 30 to 60 mins in presence ATP of fluorescence assay
[7] = target: Tyrosine-protein kinase JAK3 (Homo sapiens, UniProt P52333); assay: Inhibition of recombinant human N-terminal His6-tagged JAK3 (781 to end residues) expressed in baculovirus Sf21 insect cells preincubated for 5 mins followed by substrate addition after 30 to 60 mins in presence of ATP by fluorescence assay
[8] = target: Tyrosine-protein kinase Yes (Homo sapiens, UniProt P07947); assay: Inhibition of recombinant human full length N-terminal His6-tagged YES expressed in baculovirus Sf21 insect cells preincubated for 5 mins followed by biotinyl-beta Abeta Abeta AYQAEENTYDEYEN substrate addition after 30 to 60 mins in presence of ATP by fluorescence assay
[9] = target: Tyrosine-protein kinase HCK (Homo sapiens, UniProt P08631); assay: Inhibition of recombinant human N-terminal His6-tagged HCK (230 to 497 residues) expressed in baculovirus Sf21 insect cells preincubated for 5 mins followed by substrate addition after 30 to 60 mins in presence of ATP by fluorescence assay
[10] = target: Tyrosine-protein kinase ABL1 (Homo sapiens, UniProt P00519); assay: Inhibition of recombinant human N-terminal His6-tagged ABL (27 to end residues) expressed in baculovirus Sf21 insect cells preincubated for 5 mins followed by substrate addition after 30 to 60 mins in presence of ATP by fluorescence assay
[11] = target: Receptor-type tyrosine-protein kinase FLT3 (Homo sapiens, UniProt P36888); assay: Inhibition of recombinant human N-terminal GST-tagged FLT3 (564 to end residues) expressed in expressed in Sf21 cells preincubated for 5 mins followed by substrate addition after 30 to 60 mins in presence of ATP by fluorescence assay
Homo sapiens [12] = species on record: Homo sapiens; assay: Selectivity ratio of IC50 for recombinant human N-terminal His6-tagged TEC (174 to end residues) to IC50 for human full length N-terminal His6-tagged BMX
Homo sapiens [13] = species on record: Homo sapiens; assay: Selectivity ratio of IC50 for recombinant human N-terminal His6-tagged TXK (256 to end residues) to IC50 for human full length N-terminal His6-tagged BMX
Homo sapiens [14] = species on record: Homo sapiens; assay: Selectivity ratio of IC50 for recombinant human N-terminal His6-tagged ITK (352 to 617 residues) to IC50 for human full length N-terminal His6-tagged BMX
Homo sapiens [15] = species on record: Homo sapiens; assay: Selectivity ratio of IC50 for recombinant human N-terminal His6-tagged EGFR (696 to end residues) to IC50 for human full length N-terminal His6-tagged BMX
Homo sapiens [16] = species on record: Homo sapiens; assay: Selectivity ratio of IC50 for recombinant human N-terminal GST-tagged MKK7beta (2 to end residues) to IC50 for human full length N-terminal His6-tagged BMX
Homo sapiens [17] = species on record: Homo sapiens; assay: Selectivity ratio of IC50 for recombinant human full length N-terminal His6-tagged YES to IC50 for human full length N-terminal His6-tagged BMX
Homo sapiens [18] = species on record: Homo sapiens; assay: Selectivity ratio of IC50 for recombinant human full length N-terminal His6-tagged LCK to IC50 for human full length N-terminal His6-tagged BMX
Homo sapiens [19] = species on record: Homo sapiens; assay: Selectivity ratio of IC50 for recombinant human N-terminal His6-tagged HCK (230 to 497 residues) to IC50 for human full length N-terminal His6-tagged BMX
Homo sapiens [20] = species on record: Homo sapiens; assay: Selectivity ratio of IC50 for recombinant human full length N-terminal His6-tagged LYN to IC50 for human full length N-terminal His6-tagged BMX
Homo sapiens [21] = species on record: Homo sapiens; assay: Selectivity ratio of IC50 for recombinant human N-terminal His6-tagged FRK (218 to end residues) to IC50 for human full length N-terminal His6-tagged BMX
Homo sapiens [22] = species on record: Homo sapiens; assay: Selectivity ratio of IC50 for recombinant human N-terminal GST-tagged RET (658 to end residues) to IC50 for human full length N-terminal His6-tagged BMX
Homo sapiens [23] = species on record: Homo sapiens; assay: Selectivity ratio of IC50 for recombinant human N-terminal His6-tagged ABL (27 to end residues) to IC50 for human full length N-terminal His6-tagged BMX
Homo sapiens [24] = species on record: Homo sapiens; assay: Selectivity ratio of IC50 for recombinant human N-terminal His6-tagged FMS (538 to end residues) to IC50 for human full length N-terminal His6-tagged BMX
Homo sapiens [25] = species on record: Homo sapiens; assay: Selectivity ratio of IC50 for recombinant human N-terminal His6-tagged FER (541 to end residues) to IC50 for human full length N-terminal His6-tagged BMX
Homo sapiens [26] = species on record: Homo sapiens; assay: Selectivity ratio of IC50 for RSK1 (unknown origin) to IC50 for human full length N-terminal His6-tagged BMX
Homo sapiens [27] = species on record: Homo sapiens; assay: Selectivity ratio of IC50 for recombinant human C-terminal His6-tagged JAK2 (808 to end residues) to IC50 for human full length N-terminal His6-tagged BMX
Homo sapiens [28] = species on record: Homo sapiens; assay: Selectivity ratio of IC50 for human PDGFRalpha to IC50 for human full length N-terminal His6-tagged BMX

Sequence of Serine/threonine-protein kinase PLK1 (P53350 whole entry): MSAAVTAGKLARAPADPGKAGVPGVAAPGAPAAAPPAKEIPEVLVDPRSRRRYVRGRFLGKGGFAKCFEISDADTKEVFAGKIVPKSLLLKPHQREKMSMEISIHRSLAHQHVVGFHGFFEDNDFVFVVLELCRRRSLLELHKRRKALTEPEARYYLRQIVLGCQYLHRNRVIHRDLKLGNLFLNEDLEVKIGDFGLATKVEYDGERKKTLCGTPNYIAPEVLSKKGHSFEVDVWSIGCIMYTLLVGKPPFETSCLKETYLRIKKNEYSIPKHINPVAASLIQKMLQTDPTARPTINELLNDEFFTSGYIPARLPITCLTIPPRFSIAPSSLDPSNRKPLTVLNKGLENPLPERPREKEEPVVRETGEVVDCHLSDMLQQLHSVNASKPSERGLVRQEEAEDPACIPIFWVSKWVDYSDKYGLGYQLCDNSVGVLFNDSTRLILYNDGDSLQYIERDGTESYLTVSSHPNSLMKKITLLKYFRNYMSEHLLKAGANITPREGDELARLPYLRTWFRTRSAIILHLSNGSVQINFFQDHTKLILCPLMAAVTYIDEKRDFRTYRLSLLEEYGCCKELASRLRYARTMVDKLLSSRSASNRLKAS
Sequence of Cytoplasmic tyrosine-protein kinase BMX (P51813 whole entry): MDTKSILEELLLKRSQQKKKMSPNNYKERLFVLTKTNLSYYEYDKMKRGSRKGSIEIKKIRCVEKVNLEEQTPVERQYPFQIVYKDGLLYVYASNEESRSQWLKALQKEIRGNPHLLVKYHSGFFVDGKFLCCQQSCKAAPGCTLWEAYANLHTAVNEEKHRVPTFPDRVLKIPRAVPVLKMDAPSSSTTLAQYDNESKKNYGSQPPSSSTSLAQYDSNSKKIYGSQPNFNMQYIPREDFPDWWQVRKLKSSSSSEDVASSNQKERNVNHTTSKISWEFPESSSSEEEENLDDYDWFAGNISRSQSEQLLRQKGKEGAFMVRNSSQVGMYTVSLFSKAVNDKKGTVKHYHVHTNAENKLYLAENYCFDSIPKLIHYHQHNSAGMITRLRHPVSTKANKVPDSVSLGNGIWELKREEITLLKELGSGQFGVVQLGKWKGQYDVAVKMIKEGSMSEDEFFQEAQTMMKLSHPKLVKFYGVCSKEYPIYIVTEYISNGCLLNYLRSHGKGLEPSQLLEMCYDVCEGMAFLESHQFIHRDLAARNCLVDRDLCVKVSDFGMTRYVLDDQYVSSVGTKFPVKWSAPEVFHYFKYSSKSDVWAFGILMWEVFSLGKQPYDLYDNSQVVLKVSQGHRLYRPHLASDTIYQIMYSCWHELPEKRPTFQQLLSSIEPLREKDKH
Sequence of Receptor-type tyrosine-protein kinase FLT3 (P36888 whole entry): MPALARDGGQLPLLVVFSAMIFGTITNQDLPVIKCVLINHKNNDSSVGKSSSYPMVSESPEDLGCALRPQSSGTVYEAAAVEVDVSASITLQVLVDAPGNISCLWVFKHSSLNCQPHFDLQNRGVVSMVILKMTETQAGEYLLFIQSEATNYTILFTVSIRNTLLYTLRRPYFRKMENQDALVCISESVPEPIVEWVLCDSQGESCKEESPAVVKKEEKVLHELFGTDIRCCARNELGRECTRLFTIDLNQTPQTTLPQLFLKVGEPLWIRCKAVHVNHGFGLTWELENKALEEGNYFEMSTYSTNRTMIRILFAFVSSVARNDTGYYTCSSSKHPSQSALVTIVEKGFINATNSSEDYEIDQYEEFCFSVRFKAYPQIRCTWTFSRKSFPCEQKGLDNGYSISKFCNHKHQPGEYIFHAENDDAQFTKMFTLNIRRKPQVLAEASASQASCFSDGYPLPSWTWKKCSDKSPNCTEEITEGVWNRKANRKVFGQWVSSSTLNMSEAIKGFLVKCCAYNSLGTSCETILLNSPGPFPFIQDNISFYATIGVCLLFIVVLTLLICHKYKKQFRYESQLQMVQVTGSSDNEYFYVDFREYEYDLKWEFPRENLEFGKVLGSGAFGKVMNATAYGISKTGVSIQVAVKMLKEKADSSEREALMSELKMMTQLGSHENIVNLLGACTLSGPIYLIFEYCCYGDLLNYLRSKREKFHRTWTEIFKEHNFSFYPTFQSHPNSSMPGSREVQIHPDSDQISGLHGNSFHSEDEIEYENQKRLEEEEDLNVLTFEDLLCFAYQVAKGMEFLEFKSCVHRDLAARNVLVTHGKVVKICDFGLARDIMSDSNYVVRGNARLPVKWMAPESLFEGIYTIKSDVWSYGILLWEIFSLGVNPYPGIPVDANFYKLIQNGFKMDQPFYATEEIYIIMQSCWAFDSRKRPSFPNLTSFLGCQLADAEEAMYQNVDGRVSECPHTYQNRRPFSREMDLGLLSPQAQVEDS
Sequence of Tyrosine-protein kinase JAK3 (P52333 whole entry): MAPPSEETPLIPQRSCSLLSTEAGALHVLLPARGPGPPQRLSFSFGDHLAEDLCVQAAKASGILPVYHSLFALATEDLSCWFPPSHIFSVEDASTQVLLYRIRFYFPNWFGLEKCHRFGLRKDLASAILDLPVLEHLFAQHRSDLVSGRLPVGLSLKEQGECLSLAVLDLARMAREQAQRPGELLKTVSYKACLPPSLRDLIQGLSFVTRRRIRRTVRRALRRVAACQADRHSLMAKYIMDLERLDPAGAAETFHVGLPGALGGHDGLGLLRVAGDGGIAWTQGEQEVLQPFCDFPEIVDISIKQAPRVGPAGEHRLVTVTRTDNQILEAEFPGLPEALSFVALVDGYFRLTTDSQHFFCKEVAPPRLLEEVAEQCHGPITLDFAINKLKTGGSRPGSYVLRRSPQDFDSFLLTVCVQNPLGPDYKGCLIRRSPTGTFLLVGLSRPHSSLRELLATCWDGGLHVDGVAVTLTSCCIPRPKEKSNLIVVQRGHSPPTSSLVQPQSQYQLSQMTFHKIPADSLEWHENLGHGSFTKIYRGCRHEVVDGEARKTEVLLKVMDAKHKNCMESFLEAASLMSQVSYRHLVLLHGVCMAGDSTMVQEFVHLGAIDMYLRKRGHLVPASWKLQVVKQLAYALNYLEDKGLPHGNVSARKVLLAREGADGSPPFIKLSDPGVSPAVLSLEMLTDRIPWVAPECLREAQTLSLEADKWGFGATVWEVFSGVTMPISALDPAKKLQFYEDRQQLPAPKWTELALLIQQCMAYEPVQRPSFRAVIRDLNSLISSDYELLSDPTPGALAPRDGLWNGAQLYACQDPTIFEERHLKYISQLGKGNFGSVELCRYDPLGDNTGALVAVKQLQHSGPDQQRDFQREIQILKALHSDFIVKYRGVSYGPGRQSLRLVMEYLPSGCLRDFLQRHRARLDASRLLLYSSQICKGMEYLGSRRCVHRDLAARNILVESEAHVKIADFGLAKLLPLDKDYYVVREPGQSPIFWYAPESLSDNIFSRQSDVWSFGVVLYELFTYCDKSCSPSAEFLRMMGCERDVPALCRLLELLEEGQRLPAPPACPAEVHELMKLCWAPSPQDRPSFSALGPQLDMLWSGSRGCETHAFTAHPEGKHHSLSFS
Sequence of Tyrosine-protein kinase Yes (P07947 whole entry, the tested form may be a part): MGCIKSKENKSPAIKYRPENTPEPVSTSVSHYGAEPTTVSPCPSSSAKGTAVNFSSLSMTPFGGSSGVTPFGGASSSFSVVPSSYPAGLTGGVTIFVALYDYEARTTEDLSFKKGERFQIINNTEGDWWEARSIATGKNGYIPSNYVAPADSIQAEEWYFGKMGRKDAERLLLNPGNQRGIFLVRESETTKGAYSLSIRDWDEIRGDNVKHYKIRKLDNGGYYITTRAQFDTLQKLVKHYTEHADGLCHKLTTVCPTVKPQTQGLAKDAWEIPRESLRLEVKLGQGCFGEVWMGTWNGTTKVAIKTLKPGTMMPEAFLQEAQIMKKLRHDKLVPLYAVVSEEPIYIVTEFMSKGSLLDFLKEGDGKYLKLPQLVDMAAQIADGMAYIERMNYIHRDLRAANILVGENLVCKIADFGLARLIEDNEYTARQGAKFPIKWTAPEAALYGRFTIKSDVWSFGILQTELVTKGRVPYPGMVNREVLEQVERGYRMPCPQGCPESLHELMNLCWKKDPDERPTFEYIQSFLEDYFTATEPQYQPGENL
Sequence of Tyrosine-protein kinase BTK (Q06187 whole entry): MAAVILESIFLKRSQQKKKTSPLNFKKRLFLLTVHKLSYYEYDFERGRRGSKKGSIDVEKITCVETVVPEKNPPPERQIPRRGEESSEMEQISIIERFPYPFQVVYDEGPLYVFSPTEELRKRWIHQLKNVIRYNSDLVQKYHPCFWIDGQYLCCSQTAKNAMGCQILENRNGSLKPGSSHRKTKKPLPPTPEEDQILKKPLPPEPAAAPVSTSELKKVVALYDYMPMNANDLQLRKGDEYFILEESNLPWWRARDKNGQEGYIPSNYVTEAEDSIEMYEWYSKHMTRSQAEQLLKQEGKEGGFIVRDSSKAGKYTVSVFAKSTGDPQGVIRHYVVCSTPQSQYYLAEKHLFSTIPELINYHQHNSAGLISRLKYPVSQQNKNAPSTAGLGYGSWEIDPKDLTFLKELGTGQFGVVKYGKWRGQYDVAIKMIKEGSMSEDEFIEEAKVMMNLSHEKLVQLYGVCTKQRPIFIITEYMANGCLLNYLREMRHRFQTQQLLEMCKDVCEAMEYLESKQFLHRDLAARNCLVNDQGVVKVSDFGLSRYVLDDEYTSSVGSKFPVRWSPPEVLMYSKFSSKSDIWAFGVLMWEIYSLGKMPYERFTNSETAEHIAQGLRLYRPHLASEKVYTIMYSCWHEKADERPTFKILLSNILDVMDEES

IC50 [1]: > 10000 nM | IC50 [2]: 35.7 nM | IC50 [3]: 88.6 nM | IC50 [4]: 115 nM | IC50 [5]: 643 nM | IC50 [6]: 1000 nM | IC50 [7]: 8160 nM | IC50 [8]: 57.3 nM | IC50 [9]: 199 nM | IC50 [10]: 802 nM | IC50 [11]: 3280 nM | Ratio IC50 (Homo sapiens [12]): 3.1 | Ratio IC50 (Homo sapiens [13]): 25.7 | Ratio IC50 (Homo sapiens [14]): 158 | Ratio IC50 (Homo sapiens [15]): 18 | Ratio IC50 (Homo sapiens [16]): 5.3 | Ratio IC50 (Homo sapiens [17]): 1.6 | Ratio IC50 (Homo sapiens [18]): 5.5 | Ratio IC50 (Homo sapiens [19]): 5.6 | Ratio IC50 (Homo sapiens [20]): 8.3 | Ratio IC50 (Homo sapiens [21]): 14.3 | Ratio IC50 (Homo sapiens [22]): 2.5 | Ratio IC50 (Homo sapiens [23]): 22.5 | Ratio IC50 (Homo sapiens [24]): 114 | Ratio IC50 (Homo sapiens [25]): 166 | Ratio IC50 (Homo sapiens [26]): > 280 | Ratio IC50 (Homo sapiens [27]): > 280 | Ratio IC50 (Homo sapiens [28]): > 280
SMILES: C=CS(=O)(=O)N1CCC[C@@H]1Cn1cc(-c2ccc3c(c2)OCO3)c2c(N)ncnc21
Activity (Mus musculus): Toxic
